Read-outs that look alike come from different tables or passages of the source.
Experiments:
Type in all cases: in vivo
[1] = test system: Canada thistle (Cirsium arvense L; CIRAR); experiment: Postemergence herbicidal activity of mixtures on Canada thistle; conditions: for CIRAR Ob (observed control): alone
Protocol: (§1) Seeds of the desired test plant species were planted in Sun Gro MetroMix 306 planting mixture, which typically has a pH of 6.0 to 6.8 and an organic matter content of about 30 percent, in plastic pots with a surface area of 103.2 square centimeters (cm^2). When required to ensure good germination and healthy plants, a fungicide treatment and/or other chemical or physical treatment was applied. The plants were grown for 7-36 days (d) in a greenhouse with an approximate 14-hour (h) photoperiod which was maintained at about 18° C. during the day and 17° C. during the night. Nutrients and water were added on a regular basis and supplemental lighting was provided with overhead metal halide 1000-Watt lamps as necessary. The plants were employed for testing when they reached the second or third true leaf stage.
(§2) Treatments consisted of a cereal fungicide compound (as listed in Tables 1 through 34) and the cereal herbicide, 4-amino-3-chloro-6-(4-chloro-2-fluoro-3-methoxyphenyl)pyridine-2-carboxylic acid, alone and in combination. Weighed amounts of acid, esters (methyl) or salts (triethylammonium, TEA) of 4-amino-3-chloro-6-(4-chloro-2-fluoro-3-methoxyphenyl)pyridine-2-carboxylic acid (Compound I) were placed in 25 milliliter (mL) glass vials and dissolved in a volume of 97:3 volume-to-volume (v/v) acetone/dimethyl sulfoxide (DMSO) to obtain 4.5 milligrams active ingredient per milliliter (mg ai/mL) concentrated solutions. […] The concentrated solutions of Compound I were diluted to 1.5 mg ai/mL with the addition of 2 volumes of an aqueous mixture containing acetone, water, isopropyl alcohol, DMSO, Agri-dex crop oil concentrate, and Triton® X-77 surfactant in a 64.7:26.0:6.7:2.0:0.7:0.01 v/v ratio. A dilution solution was prepared by mixing 1 volume of 97:3 v/v acetone/DMSO and 2 volumes of an aqueous mixture containing acetone, water, isopropyl alcohol, DMSO, Agri-dex crop oil concentrate, and Triton® X-77 surfactant in a 64.7:26.0:6.7:2.0:0.7:0.01 v/v ratio. Compound requirements are based upon a 12 mL application volume at a rate of 187 liters per hectare (L/ha). The concentrated solutions of the cereal fungicides were prepared following the same procedure. Weighed amounts of fungicide were placed in 25 mL glass vials and dissolved in a volume of 97:3 v/v acetone/DMSO to obtain concentrated fungicide solutions. The concentrated solutions of the safener were prepared following the same procedure. Weighed amounts of safener were placed in 25 mL glass vials and dissolved in a volume of 97:3 v/v acetone/DMSO to obtain concentrated safener solutions.
(§3) Spray solutions of the cereal herbicide and the fungicidal compound mixtures were prepared by adding the concentrated solutions to the appropriate amount of dilution solution to form 12 mL spray solution with active ingredients in combinations. Spray solutions of the cereal herbicide, herbicide safener and the fungicidal compound mixtures were prepared by adding the concentrated solutions to the appropriate amount of dilution solution to form 12 mL spray solution with active ingredients in combinations. […]
(§4) The treated plants and control plants were placed in a greenhouse as described above and watered by sub-irrigation to prevent wash-off of the test compounds. After 20-22 d, the condition of the test plants as compared with that of the control plants was determined visually and scored on a scale of 0 to 100 percent where 0 corresponds to no injury and 100 corresponds to complete kill. […]

[2] = test system: lamb's-quarter (Chenopodium album L; CHEAL); experiment: Postemergence herbicidal activity of mixtures on lamb's-quarter; conditions: for CHEAL Ob (observed control): alone
Protocol: as §1
as §2, with “The concentrated solutions of the safener were prepared following the same procedure. Weighed amounts of safener were placed in 25 mL glass vials and dissolved in a volume of 97:3 v/v acetone/DMSO to obtain concentrated safener solutions.” left out
as §4

[3] = test system: wild pansy (Viola tricolor L; VIOTR); experiment: Postemergence herbicidal activity of mixtures on wild pansy
Protocol: as §1, §2
(§5) Spray solutions of the cereal herbicide and the fungicidal compound mixtures were prepared by adding the concentrated solutions to the appropriate amount of dilution solution to form 12 mL spray solution with active ingredients in combinations. Spray solutions of the cereal herbicide, herbicide safener and the fungicidal compound mixtures were prepared by adding the concentrated solutions to the appropriate amount of dilution solution to form 12 mL spray solution with active ingredients in combinations.
(§6) Formulated compounds were applied to the plant material with an overhead Mandel track sprayer equipped with 8002E nozzles calibrated to deliver 187 L/ha over an application area of 0.503 square meters (m^2) at a spray height of 18 inches […] above average plant canopy. Control plants were sprayed in the same manner with the solvent blank.
as §4

[4] = test system: redroot pigweed (Amaranthus retroflexus L; AMARE); experiment: Postemergence herbicidal activity of mixtures on redroot pigweed; conditions: for AMARE Ob (observed control): alone
Protocol: as §1, §2, §3, §4

[5] = test system: chickweed (Stellaria media L; STEME); experiment: Postemergence herbicidal activity of mixtures on chickweed; conditions: for STEME Ob (observed control): alone
Protocol: as §1
Treatments consisted of a cereal fungicide compound (as listed in Tables 1 through 34) and the cereal herbicide, 4-amino-3-chloro-6-(4-chloro-2-fluoro-3-methoxyphenyl)pyridine-2-carboxylic acid, alone and in combination. Weighed amounts of acid, esters (methyl) or salts (triethylammonium, TEA) of 4-amino-3-chloro-6-(4-chloro-2-fluoro-3-methoxyphenyl)pyridine-2-carboxylic acid (Compound I) were placed in 25 milliliter (mL) glass vials and dissolved in a volume of 97:3 volume-to-volume (v/v) acetone/dimethyl sulfoxide (DMSO) to obtain 4.5 milligrams active ingredient per milliliter (mg ai/mL) concentrated solutions. […] The concentrated solutions of Compound I were diluted to 1.5 mg ai/mL with the addition of 2 volumes of an aqueous mixture containing acetone, water, isopropyl alcohol, DMSO, Agri-dex crop oil concentrate, and Triton® X-77 surfactant in a 64.7:26.0:6.7:2.0:0.7:0.01 v/v ratio. […]
as §4

[6] = test system: Wheat; experiment: Safening activity of herbicidal compositions on wheat (crop injury); conditions: for TRZAS Ob (observed injury): alone
Protocol: as §1, §2, §5, §6, §4

[7] = test system: bird's-eye speedwell (Veronica persica L; VERPE); experiment: Postemergence herbicidal activity of mixtures on bird's-eye speedwell; conditions: for VERPE Ob (observed control): alone
Protocol: as §1, §2, §5, §6, §4

[8] = test system: Russian thistle (Salsola iberica L; SASKR); experiment: Postemergence herbicidal activity of mixtures on Russian thistle; conditions: for SASKR Ob (observed control): alone
Protocol: as §1, §2, §5, §6, §4

[9] = test system: kochia (Kochia scoparia L; KCHSC); experiment: Postemergence herbicidal activity of mixtures on kochia; parameters: KCHSC Ob: unit: %; conditions: for KCHSC Ob (observed control): alone
Protocol: as §1, §2, §5, §6, §4

[10] = test system: scented mayweed (Matricaria chamomila L; MATCH); experiment: Postemergence herbicidal activity of mixtures on scented mayweed; conditions: for MATCH Ob (observed control): alone
Protocol: as §1, §2, §5, §6, §4

[11] = test system: Barley; experiment: Safening activity of herbicidal compositions on barley (crop injury); conditions: for HORVS Ob (observed injury): alone
Protocol: as §1, §2, §5, §6, §4

## CC(Cc1ccc(C(C)(C)C)cc1)CN1CCCCC1 (racemic) [Fenpropidin, (±)-1-[3-[4-(1,1-dimethylethyl)phenyl]-2-methylpropyl]piperidine]
[1]; fungicide 562.5 g/ha alone
  CIRAR Ob: 0%
[2]; fungicide 562.5 g/ha alone
  CHEAL Ob: 0%
[3]; Viola tricolor, post-emergence, fungicide 562.5 g/ha alone, read-out: VIOTR Ob
  pest or weed control at 562.5 g/ha: 0%
[4]; fungicide 562.5 g/ha alone
  AMARE Ob: 0%

## FC(F)C(F)(F)OCC(Cn1cncn1)c1ccc(Cl)cc1Cl (racemic) [Tetraconazole, (±)-1-[2-(2,4-dichlorophenyl)-3-(1,1,2,2-tetrafluoroethoxy)propyl]-1H-1,2,4-triazole]
[1]; 125 g/ha
  CIRAR Ob (observed control): 0%
[2]; 125 g/ha
  CHEAL Ob (observed control): 0%
[5]; 125 g/ha
  STEME Ob (observed control): 0%
[3]; Viola tricolor, post-emergence, alone, 125 g/ha, read-out: VIOTR Ob (observed control)
  pest or weed control at 125 g/ha: 0%
[4]; 125 g/ha
  AMARE Ob (observed control): 0%

## CC(C)NC(=O)N1CC(=O)N(c2cc(Cl)cc(Cl)c2)C1=O [Iprodione, 3-(3,5-dichlorophenyl)-N-(1-methylethyl)-2,4-dioxo-1-imidazolidine=carboxamide]
[1]; fungicide 750 g/ha alone
  CIRAR Ob: 0%
[3]; Viola tricolor, post-emergence, fungicide 750 g/ha alone, read-out: VIOTR Ob
  pest or weed control at 750 g/ha: 0%
[4]; fungicide 750 g/ha alone
  AMARE Ob: 0%

## CO/C=C(/C(=O)OC)c1ccccc1COc1cccc(C(F)(F)F)n1 [Picoxystrobin, methyl (E)-(α)-(methoxymethylene)-2-[[[6-(trifluoromethyl)-2-pyridinyl]oxy]methyl]benzeneacetate]
[1]; fungicide 250 g/ha alone
  CIRAR Ob: 0%
[2]; fungicide 250 g/ha alone
  CHEAL Ob: 0%
[5]; fungicide 250 g/ha alone
  STEME Ob: 0%
[3]; fungicide 250 g/ha alone
  VIOTR Ob: 0%
[4]; fungicide 250 g/ha alone
  AMARE Ob: 0%

## CC(C)(C)C(O)(CCc1ccc(Cl)cc1)Cn1cncn1 (stereo not drawn) [Tebuconazole, α-[2-(4-chlorophenyl)ethyl]-α-(1,1-dimethylethyl)-1H-1,2,4-triazole-1-ethanol]
[6]; 62.5 g/ha
  TRZAS Ob (observed injury): 0%
[6]; 250 g/ha
  TRZAS Ob (observed injury): 0%
[6]; fungicide 250 g/ha
  TRZAS Ob: 0
[7]; 31.25 g/ha
  VERPE Ob (observed control): 0%
[7]; 62.5 g/ha
  VERPE Ob (observed control): 0%
[7]; 250 g/ha
  VERPE Ob (observed control): 0%
[7]; fungicide 250 g/ha
  VERPE Ob: 0
[8]; 31.25 g/ha
  SASKR Ob (observed control): 0%
[8]; 62.5 g/ha
  SASKR Ob (observed control): 0%
[8]; 250 g/ha
  SASKR Ob (observed control): 0%
[8]; fungicide 250 g/ha
  SASKR Ob: 0
[9]; 31.25 g/ha
  KCHSC Ob (observed control): 0%
[9]; 62.5 g/ha
  KCHSC Ob (observed control): 0%
[9]; 250 g/ha
  KCHSC Ob (observed control): 0%
[9]; fungicide 250 g/ha
  KCHSC Ob: 0
[10]; 31.25 g/ha
  MATCH Ob (observed control): 0%
[10]; 62.5 g/ha
  MATCH Ob (observed control): 0%
[10]; 250 g/ha
  MATCH Ob (observed control): 0%
[10]; fungicide 250 g/ha
  MATCH Ob: 0
[11]; 62.5 g/ha
  HORVS Ob (observed injury): 0%
[11]; 250 g/ha
  HORVS Ob (observed injury): 0%
[11]; fungicide 250 g/ha
  HORVS Ob: 0
[3]; Viola tricolor, post-emergence, alone, 31.25 g/ha, read-out: VIOTR Ob (observed control)
  pest or weed control at 31.25 g/ha: 0%
[3]; Viola tricolor, post-emergence, alone, 62.5 g/ha, read-out: VIOTR Ob (observed control)
  pest or weed control at 62.5 g/ha: 0%
[3]; Viola tricolor, post-emergence, alone, 250 g/ha, read-out: VIOTR Ob (observed control)
  pest or weed control at 250 g/ha: 0%
[3]; fungicide 250 g/ha
  VIOTR Ob: 0

## COC(=O)NC(=S)Nc1ccccc1NC(=S)NC(=O)OC [Thiophanate-methyl, dimethyl[1,2-phenylenebis(iminocarbonothioyl)]bis[carbamate]]
[1]; 750 g/ha
  CIRAR Ob (observed control): 0%
[2]; 750 g/ha
  CHEAL Ob (observed control): 0%
[5]; 750 g/ha
  STEME Ob (observed control): 0%
[3]; Viola tricolor, post-emergence, alone, 750 g/ha, read-out: VIOTR Ob (observed control)
  pest or weed control at 750 g/ha: 0%
[4]; 750 g/ha
  AMARE Ob (observed control): 0%

Source: patent publication US9101136B2, “Synergistic herbicide/fungicide composition containing certain pyridine carboxylic acids and certain fungicides” (Dow AgroSciences LLC, priority 2010, dated 2015)
